Columns and labels:
[1] = PK study, intravenous and oral administration, plasma LC-MS/MS; format: in vivo; settings: both sexes, 5 mg/kg, oral administration of 5 mpk, species not given (ICR mice or SD Rat); for bioavailability: read-out: bioavailability (F); for half-life: read-out: half-life (t1/2) (converted)
Protocol: ICR mice (male/female, total 6 animals) were assigned to two groups for oral administration and intravenous administration, respectively, with 3 mice in each group. Before administration, the animals were fasted for 10-14 hours, with water available ad lib.
SD Rat (male/female, total 6 animals) were assigned to two groups for oral administration and intravenous administration, respectively, with 3 mice in each group. Before administration, the animals were fasted for 10-14 hours, with water available ad lib.
The compounds to be tested were weighed out in accordance with intended dosage, formulated with vehicles (5% DMSO + 10% Solutol + 85% physiological saline) to dosage form at appropriate concentrations (administered intravenously and orally in rats or mice at a volume of 5 mL/kg and 10 mL/kg, respectively). The dosage form for intravenous injection is a clear solution, and the dosage form for oral administration is a clear solution or homogenous suspension.
Administration to animals was conducted through intravenous injection and oral gavage, and blood samples were collected at 0.033, 0.083, 0.25, 0.5, 1, 2, 4, 8, and 24 hours after intravenous injection, or at 0.083, 0.25, 0.5, 1, 2, 4, 6, 8, and 24 hours after oral administration. After centrifugation of whole blood samples at 4°C and 6,800g for 6 minutes, the upper layers of plasma were stored at -80°C refrigerator before analysis.
The DMSO stock solutions of the substance to be tested were diluted with methanol or acetonitrile solution to serial working solutions and added to blank plasma matrix to formulate samples for standard curve and quality control. An appropriate volume of plasma sample was added with appropriate fold of methanol or acetonitrile containing internal standards, according to response, for protein precipitation. After centrifugation of all samples at 4°C and 18,000g for 10 min, appropriate volumes of supernatant were taken for LC-MS/MS analysis.
Plasma drug concentration-time curves were plotted in accordance with tested concentrations, and pharmacokinetic parameters were calculated based on non-compartmental model using WinNonlin software, including half-life (T1/2), area under the drug concentration-time curve (AUC0-t), clearance rate (CL), steady-state distribution volume (Vss), bioavailability (F), etc.

[2] = target: T1, CYP11A1 (Homo sapiens, UniProt P05108); assay: NCI-H295R cellular pregnenolone biosynthesis inhibition assay (ELISA method); format: cell-based; settings: NCI-H295R cells, 3 days incubation, pregnenolone in cell supernatant by ELISA; read-out: IC50
T1 construct: host or cells: NCI-H295R
T1 sequence (P05108 40-521): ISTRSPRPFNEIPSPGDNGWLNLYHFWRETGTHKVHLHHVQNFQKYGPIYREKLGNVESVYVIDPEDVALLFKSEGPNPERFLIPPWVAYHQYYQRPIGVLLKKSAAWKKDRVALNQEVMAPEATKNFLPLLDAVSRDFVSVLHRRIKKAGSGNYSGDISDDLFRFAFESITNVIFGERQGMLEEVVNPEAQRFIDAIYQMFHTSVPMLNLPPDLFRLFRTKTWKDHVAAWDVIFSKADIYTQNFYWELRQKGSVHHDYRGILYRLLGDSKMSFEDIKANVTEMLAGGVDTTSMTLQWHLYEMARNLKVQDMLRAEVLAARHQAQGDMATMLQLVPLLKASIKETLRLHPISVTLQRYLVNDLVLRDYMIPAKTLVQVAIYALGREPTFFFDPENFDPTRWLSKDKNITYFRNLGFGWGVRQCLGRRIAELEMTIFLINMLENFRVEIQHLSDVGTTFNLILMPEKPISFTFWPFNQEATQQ
Method in brief: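 NCI-H295R adrenocortical cells (5,000/well) treated 3 days at 37°C with compounds from 10µM top, 3-fold 10-point series, 0.1% DMSO. Pregnenolone in 5×-diluted supernatant measured by competitive ELISA (A450). Inhibition normalised to 1µM ODM-208 (100%) and DMSO (0%); IC50 by four-parameter fit.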

| AUC [1] [ng·h/mL] | bioavailability [1] [%] | half-life [1] [h] | IC50 [2] [nM] | Cmax [1] [ng/mL] | Compound |
| --- | --- | --- | --- | --- | --- |
| > 1700 | > 60 | > 3 | < 100 | – | Cn1c(CN2Cc3ccccc3C2)c(F)cc(CCC2CCN(S(C)(=O)=O)CC2)c1=O [compound 72] |
| > 1700 | > 60 | – | < 100 | > 1000 | Cn1c(CN2Cc3ccccc3C2)c(F)cc(C=CC2CCN(C(=O)CC#N)CC2)c1=O [compound 112] |
| > 1700 | – | > 3 | < 100 | – | COc1cc(CN2Cc3ccccc3C2)ccc1CCC1CCN(S(C)(=O)=O)CC1 [compound 53] |

From patent EP4775570A1, “CYP11A1 INHIBITOR, PREPARATION METHOD THEREFOR AND USE THEREOF” (Shenzhen Zhongge Biological Technology Co., Ltd., priority 2023, dated 2025)
